Reference: ChEMBL document CHEMBL1201862, “PubChem BioAssay data set” (2004)
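Tested at 5 concentrations; 48 h exposure; 96-well plates; endpoints linearly interpolated, else capped at highest concentration. GI50 is the concentration that inhibits growth by half.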 The source made the active and inactive calls. Cut-off read from the data, not from the text of the source: active = GI50 up to about 1.1 µM and inactive = higher.

Key:
Experiment in all cases: NCI anticancer screen, dose series, 48 h
A498 = system: A498
A549 = system: A549
ACHN = system: ACHN
COLO 205 = system: COLO 205
HCC 2998 = system: HCC 2998
HCT-116 = system: HCT-116
HCT-15 = system: HCT-15
HOP-62 = system: HOP-62
HT-29 = system: HT-29
LOX IMVI = system: LOX IMVI
MCF7 = system: MCF7
NCI-H23 = system: NCI-H23
OVCAR-4 = system: OVCAR-4
OVCAR-5 = system: OVCAR-5
PC-3 = system: PC-3
RXF 393 = system: RXF 393
SF-268 = system: SF-268
SNB-19 = system: SNB-19
SF-295 = system: SF-295

Structure (SMILES)	GI50 (A498)	GI50 (A549)	GI50 (ACHN)	GI50 (COLO 205)	GI50 (HCC 2998)	GI50 (HCT-116)	GI50 (HCT-15) [µM]	GI50 (HOP-62)	GI50 (HT-29)	GI50 (LOX IMVI)	GI50 (MCF7)	GI50 (NCI-H23)	GI50 (OVCAR-4)	GI50 (OVCAR-5)	GI50 (PC-3)	GI50 (RXF 393)	GI50 (SF-268)	GI50 (SNB-19)	GI50 (SF-295)
CS(=O)(=O)N1CC(CCl)c2ccc(NCCN)cc21 (stereo unspecified)	69 µM (inactive)	> 100 µM (inactive)	29.9 µM (inactive)	> 100 µM (inactive)	> 100 µM (inactive)	83.2 µM (inactive)	> 100	14.8 µM (inactive)	> 100 µM (inactive)	> 100 µM (inactive)	> 100 µM (inactive)	53.7 µM (inactive)	58.9 µM (inactive)	> 100 µM (inactive)	> 100 µM (inactive)	35.4 µM (inactive)	39.1 µM (inactive)	39 µM (inactive)	–
CC(=O)/C=C1/C(=O)C(CC(C)C)=C1CC(C)C	> 100 µM (inactive)	> 100 µM (inactive)	> 100 µM (inactive)	> 100 µM (inactive)	–	> 100 µM (inactive)	> 100	> 100 µM (inactive)	> 100 µM (inactive)	> 100 µM (inactive)	> 100 µM (inactive)	> 100 µM (inactive)	> 100 µM (inactive)	> 100 µM (inactive)	> 100 µM (inactive)	> 100 µM (inactive)	> 100 µM (inactive)	> 100 µM (inactive)	> 100 µM (inactive)
CCCNC(=O)c1cc(OC)c(OC)cc1NC(=O)C12CC3CC(CC(C3)C1)C2	15.1 µM (inactive)	17.1 µM (inactive)	14.5 µM (inactive)	24.3 µM (inactive)	–	16.8 µM (inactive)	17	19.7 µM (inactive)	18.2 µM (inactive)	19.5 µM (inactive)	22.2 µM (inactive)	16.8 µM (inactive)	17.6 µM (inactive)	20.2 µM (inactive)	17.3 µM (inactive)	6.81 µM (inactive)	17.6 µM (inactive)	16.4 µM (inactive)	18.7 µM (inactive)
COC(=O)CCCC(=O)C1=NN(c2ccc(Cl)cc2)Cc2ccccc2N1	36.1 µM (inactive)	96.4 µM (inactive)	> 100 µM (inactive)	54 µM (inactive)	> 100 µM (inactive)	> 100 µM (inactive)	95.1	60.5 µM (inactive)	98.6 µM (inactive)	> 100 µM (inactive)	75.9 µM (inactive)	> 100 µM (inactive)	20.7 µM (inactive)	> 100 µM (inactive)	91 µM (inactive)	86.1 µM (inactive)	> 100 µM (inactive)	> 100 µM (inactive)	> 100 µM (inactive)
N#Cc1nc(C2=C(Cl)c3ccccc3OC2)[nH]c1C#N	24.3 µM (inactive)	33.3 µM (inactive)	32.5 µM (inactive)	–	16.3 µM (inactive)	–	34.8	–	19.1 µM (inactive)	16.9 µM (inactive)	22.8 µM (inactive)	25.1 µM (inactive)	53.3 µM (inactive)	38.5 µM (inactive)	11 µM (inactive)	13.9 µM (inactive)	32.6 µM (inactive)	29.8 µM (inactive)	–
O=[N+]([O-])c1cccc2nc3ccccc3c(NCCCNc3c4ccccc4nc4cccc([N+](=O)[O-])c34)c12	–	< 0.0175 µM (active)	0.0121 µM (active)	0.0102 µM (active)	0.0157 µM (active)	0.0103 µM (active)	< 0.0138	< 0.0156 µM (active)	< 0.01 µM (active)	0.0977 µM (active)	0.0151 µM (active)	0.0182 µM (active)	0.0635 µM (active)	0.0435 µM (active)	0.0343 µM (active)	0.0177 µM (active)	< 0.01 µM (active)	0.0137 µM (active)	0.037 µM (active)
